According to paper PMC11818225, “Multifaceted Sulfonamide-Derived Thiosemicarbazones: Combining Metal Chelation and Carbonic Anhydrases Inhibition in Anticancer Therapy” (International Journal of Molecular Sciences, 2025):

Key:
HBL-100 (breast) = experiment: Antiproliferative SBR assay (NCI protocol), HBL-100; format: cell-based, human; conditions: 48 h exposure, n = 3, mean ± SD
Excerpt: (§1) The latter two represent multidrug-resistant cell lines.

WiDr (colon) = experiment: Antiproliferative SBR assay (NCI protocol), WiDr; format: cell-based, human; conditions: 48 h exposure, n = 3, mean ± SD, multidrug-resistant line
Excerpt: as §1

HeLa (cervix) = experiment: Antiproliferative SBR assay (NCI protocol), HeLa; format: cell-based, human; conditions: 48 h exposure, n = 3, mean ± SD
Excerpt: as §1

[1] = tested on: A549 (non-small cell lung); experiment: Antiproliferative SBR assay (NCI protocol), A549; format: cell-based, human; conditions: 48 h exposure, n = 3, mean ± SD
Excerpt: as §1

T-47D (breast) = experiment: Antiproliferative SBR assay (NCI protocol), T-47D; format: cell-based, human; conditions: 48 h exposure, n = 3, mean ± SD, multidrug-resistant line
Excerpt: as §1

[2] = tested on: SW1573 (non-small cell lung)
Experimental: The potential antiproliferative activity of sulfonamides synthesized in this study was evaluated in vitro using the SBR assay, following the US NCI protocol. A panel of six tumor cell lines was employed: A549 (non-small cell lung), HBL-100 (breast), HeLa (cervix), SW1573 (non-small cell lung), T-47D (breast), and WiDr (colon). The latter two represent multidrug-resistant cell lines.
Cells were maintained in culture in 60 mm cell culture dishes in growth medium (10 mL) and passaged twice weekly.
The antiproliferative activity of compounds was tested using our implementation of the protocol of the National Cancer Institute (NCI) of the USA. The following seeding densities (cells per well) were used: 2500 (A549, HBL-100, HeLa, and SW1573) and 5000 (T-47D and WiDr). Stock solutions of inhibitors (40 mM) were prepared in pure DMSO (400 times the maximum test concentration).

human CA II = human CA II (Homo sapiens, UniProt P00918); experiment: Stopped-flow CO2 hydrase assay, CA II
human CA XII = human CA XII (Homo sapiens, UniProt O43570); experiment: Stopped-flow CO2 hydrase assay, CA XII; conditions: for Selectivity Ratio I/XII: Ki CA I / Ki CA XII; for Selectivity Ratio II/XII: Ki CA II / Ki CA XII
Chain of human CA XII (O43570 25-354): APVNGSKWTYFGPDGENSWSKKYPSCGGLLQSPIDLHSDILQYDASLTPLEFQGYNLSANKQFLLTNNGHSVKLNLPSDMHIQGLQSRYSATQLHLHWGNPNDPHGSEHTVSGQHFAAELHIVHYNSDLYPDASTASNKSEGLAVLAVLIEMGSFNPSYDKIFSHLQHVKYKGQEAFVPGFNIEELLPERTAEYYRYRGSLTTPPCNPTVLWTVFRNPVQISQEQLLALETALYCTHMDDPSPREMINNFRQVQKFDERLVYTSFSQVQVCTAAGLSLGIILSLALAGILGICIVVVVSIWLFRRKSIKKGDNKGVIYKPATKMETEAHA

human CA IX = human CA IX (Homo sapiens, UniProt Q16790); experiment: Stopped-flow CO2 hydrase assay, CA IX; conditions: for Selectivity Ratio I/IX: Ki CA I / Ki CA IX; for Selectivity Ratio II/IX: Ki CA II / Ki CA IX
human CA I = human CA I (Homo sapiens, UniProt P00915); experiment: Stopped-flow CO2 hydrase assay, CA I
Chain of human CA I (P00915 whole entry): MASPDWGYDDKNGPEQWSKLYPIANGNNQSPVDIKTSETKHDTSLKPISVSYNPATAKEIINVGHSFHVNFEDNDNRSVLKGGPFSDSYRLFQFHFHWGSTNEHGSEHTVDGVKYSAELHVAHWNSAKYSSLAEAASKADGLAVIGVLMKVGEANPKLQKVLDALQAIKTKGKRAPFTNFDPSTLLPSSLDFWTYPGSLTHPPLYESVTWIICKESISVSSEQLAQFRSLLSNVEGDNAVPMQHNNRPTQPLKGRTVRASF

SMILES	GI50 (HBL-100 (breast); Homo sapiens, HBL-100)	GI50 (WiDr (colon); Homo sapiens, WiDr)	GI50 (HeLa (cervix); Homo sapiens, HeLa)	GI50 ([1]; Homo sapiens, A549)	GI50 (T-47D (breast); Homo sapiens, T47D)	GI50 [2]	GI50 (HBL-100 (breast))	GI50 (WiDr (colon))	GI50 (HeLa (cervix))	GI50 [1]	GI50 (T-47D (breast))	Ki (human CA II)	Ki (human CA XII)	Selectivity Ratio I/XII (human CA XII)	Selectivity Ratio II/XII (human CA XII)	Ki (human CA IX)	Selectivity Ratio I/IX (human CA IX)	Selectivity Ratio II/IX (human CA IX)	Ki (human CA I)
O=c1[nH]cc(F)c(=O)[nH]1 [5-Fluorouracil, reference compound]	4.4 ± 0.7 µM	49 ± 7 µM	16 ± 5 µM	2.2 ± 0.3 µM	43 ± 16 µM	3.3 ± 1.2 µM	–	–	–	–	–	–	–	–	–	–	–	–	–
[NH2][Pt]([NH2])([Cl])[Cl] [CDDP, cisplatin, reference compound]	–	–	–	–	–	2.7 ± 0.4 µM	1.9 ± 0.2 µM	26 ± 4 µM	1.8 ± 0.5 µM	4.9 ± 0.2 µM	17 ± 3 µM	–	–	–	–	–	–	–	–
NNC(=S)Nc1ccc(S(N)(=O)=O)cc1 [Compound 3a, 4-N-(4′-Sulfonamidophenyl)-3-thiosemicarbazide]	> 100 µM	> 100 µM	> 100 µM	> 100 µM	> 100 µM	> 100 µM	–	–	–	–	–	–	–	–	–	–	–	–	–
NNC(=S)Nc1cccc(S(N)(=O)=O)c1 [Compound 3b, 4-N-(3′-Sulfonamidophenyl)-3-thiosemicarbazide]	> 100 µM	> 100 µM	> 100 µM	> 100 µM	> 100 µM	> 100 µM	–	–	–	–	–	0.439 µM	0.116 µM	12.6	3.8	0.185 µM	7.9	2.4	1.46 µM
NNC(=S)NCCc1ccc(S(N)(=O)=O)cc1 [Compound 3c, 4-N-[2′-(4″-Sulfonamido)phenyl]ethyl-3-thiosemicarbazide]	> 100 µM	> 100 µM	> 100 µM	> 100 µM	> 100 µM	> 100 µM	–	–	–	–	–	0.00851 µM	0.00502 µM	15.7	1.7	0.013 µM	6.1	0.65	0.079 µM
COc1ccc(/C=N/NC(=S)Nc2ccc(S(N)(=O)=O)cc2)cc1 [Compound 4b, 1-(4′-Methoxyphenylmethylene)-4-(4″-sulfonamidophenyl)-3-thiosemicarbazone]	> 100 µM	> 100 µM	64 ± 23 µM	> 100 µM	> 100 µM	> 100 µM	–	–	–	–	–	–	–	–	–	–	–	–	–
NS(=O)(=O)c1ccc(NC(=S)N/N=C/c2ccc(F)cc2)cc1 [Compound 4c, 1-(4′-Fluorophenylmethylene)-4-(4″-sulfonamidophenyl)-3-thiosemicarbazone]	28 ± 1 µM	24 ± 4 µM	7.9 ± 1.1 µM	25 ± 5 µM	17 ± 1 µM	6 ± 0.4 µM	–	–	–	–	–	–	–	–	–	–	–	–	–
NS(=O)(=O)c1ccc(NC(=S)N/N=C/c2ccc(Cl)cc2)cc1 [Compound 4d, 1-(4′-Chlorophenylmethylene)-4-(4″-sulfonamidophenyl)-3-thiosemicarbazone]	> 100 µM	> 100 µM	> 100 µM	> 100 µM	> 100 µM	> 100 µM	–	–	–	–	–	–	–	–	–	–	–	–	–
NS(=O)(=O)c1ccc(NC(=S)N/N=C/c2ccc(Br)cc2)cc1 [Compound 4e, 1-(4′-Bromophenylmethylene)-4-(4″-sulfonamidophenyl)-3-thiosemicarbazone]	24 ± 2 µM	62 ± 12 µM	18 ± 1 µM	23 ± 6 µM	36 ± 1 µM	22 ± 1 µM	–	–	–	–	–	–	–	–	–	–	–	–	–
NS(=O)(=O)c1ccc(NC(=S)N/N=C/c2ccc([N+](=O)[O-])cc2)cc1 [Compound 4f, 1-(4′-Nitrophenylmethylene)-4-(4″-sulfonamidophenyl)-3-thiosemicarbazone]	> 100 µM	> 100 µM	> 100 µM	> 100 µM	> 100 µM	> 100 µM	–	–	–	–	–	–	–	–	–	–	–	–	–
NS(=O)(=O)c1cccc(NC(=S)N/N=C/c2ccccc2)c1 [Compound 4g, 1-Phenylmethylene-4-(3″-sulfonamidophenyl)-3-thiosemicarbazone]	> 100 µM	62 ± 10 µM	61 ± 6 µM	51 ± 10 µM	83 ± 10 µM	70 ± 1 µM	–	–	–	–	–	–	–	–	–	–	–	–	–
COc1ccc(/C=N/NC(=S)Nc2cccc(S(N)(=O)=O)c2)cc1 [Compound 4h, 1-(4′-Methoxyphenylmethylene)-4-(3″-sulfonamidophenyl)-3-thiosemicarbazone]	> 100 µM	> 100 µM	> 100 µM	> 100 µM	> 100 µM	> 100 µM	–	–	–	–	–	–	–	–	–	–	–	–	–
NS(=O)(=O)c1cccc(NC(=S)N/N=C/c2ccc(F)cc2)c1 [Compound 4i, 1-(4′-Fluorophenylmethylene)-4-(3″-sulfonamidophenyl)-3-thiosemicarbazone]	> 100 µM	79 ± 29 µM	> 100 µM	83 ± 16 µM	> 100 µM	> 100 µM	–	–	–	–	–	–	–	–	–	–	–	–	–
NS(=O)(=O)c1cccc(NC(=S)N/N=C/c2ccc(Cl)cc2)c1 [Compound 4j, 1-(4′-Chlorophenylmethylene)-4-(3″-sulfonamidophenyl)-3-thiosemicarbazone]	42 ± 15 µM	24 ± 8 µM	38 ± 3 µM	22 ± 4 µM	59 ± 16 µM	36 ± 4 µM	–	–	–	–	–	–	–	–	–	–	–	–	–
NS(=O)(=O)c1cccc(NC(=S)N/N=C/c2ccc(Br)cc2)c1 [Compound 4k, 1-(4′-Bromophenylmethylene)-4-(3″-sulfonamidophenyl)-3-thiosemicarbazone]	40 ± 1 µM	> 100 µM	45 ± 5 µM	19 ± 6 µM	> 100 µM	46 ± 1 µM	–	–	–	–	–	–	–	–	–	–	–	–	–
NS(=O)(=O)c1ccc(CCNC(=S)N/N=C/c2ccccc2)cc1 [Compound 4l, 1-Phenylmethylene-4-[2′-(4″-sulfonamido)phenyl]ethyl-3-thiosemicarbazone]	> 100 µM	90 ± 14 µM	> 100 µM	90 ± 14 µM	> 100 µM	99 ± 1 µM	–	–	–	–	–	0.0702 µM	0.00912 µM	62.3	7.7	0.0308 µM	18.4	2.3	0.568 µM
COc1ccc(/C=N/NC(=S)NCCc2ccc(S(N)(=O)=O)cc2)cc1 [Compound 4m, 1-(4′-Methoxyphenylmethylene)-4-[2″-(4‴-sulfonamido)phenyl]ethyl-3-thiosemicarbazone]	> 100 µM	> 100 µM	> 100 µM	97 ± 4 µM	> 100 µM	> 100 µM	–	–	–	–	–	0.321 µM	0.035 µM	99.4	9.2	0.164 µM	21.2	2.0	3.48 µM
NS(=O)(=O)c1ccc(CCNC(=S)N/N=C/c2ccc(F)cc2)cc1 [Compound 4n, 1-(4′-Fluorophenylmethylene)-4-[2″-(4‴-sulfonamido)phenyl]ethyl-3-thiosemicarbazone]	> 100 µM	> 100 µM	> 100 µM	> 100 µM	> 100 µM	> 100 µM	–	–	–	–	–	0.59 µM	0.0485 µM	51.2	12.2	0.3 µM	8.3	2.0	2.49 µM
NS(=O)(=O)c1ccc(CCNC(=S)N/N=C/c2ccc(Cl)cc2)cc1 [Compound 4o, 1-(4′-Chlorophenylmethylene)-4-[2″-(4‴-sulfonamido)pheny]ethyl-3-thiosemicarbazone]	76 ± 32 µM	> 100 µM	45 ± 16 µM	62 ± 6 µM	> 100 µM	73 ± 38 µM	–	–	–	–	–	0.773 µM	0.143 µM	43.4	–	0.408 µM	15.2	1.9	6.22 µM
NS(=O)(=O)c1ccc(CCNC(=S)N/N=C/c2ccc(Br)cc2)cc1 [Compound 4p, 1-(4′-Bromophenylmethylene)-4-[2″-(4‴-sulfonamido)phenyl]ethyl-3-thiosemicarbazone]	42 ± 8 µM	58 ± 9 µM	31 ± 9 µM	21 ± 4 µM	37 ± 8 µM	53 ± 17 µM	–	–	–	–	–	0.813 µM	0.123 µM	49.5	6.6	0.499 µM	12.2	1.6	6.09 µM
NS(=O)(=O)c1ccc(CCNC(=S)N/N=C/c2ccccn2)cc1 [Compound 5c, 1-(Pyridin-2′-ylmethylene)-4-[2″-(4‴-sulfonamidophenyl)]ethyl-3-thiosemicarbazone]	> 100 µM	> 100 µM	> 100 µM	37 ± 11 µM	> 100 µM	> 100 µM	–	–	–	–	–	0.0839 µM	0.0093 µM	29.0	9.0	0.0285 µM	9.5	2.9	0.27 µM
